Test results as given in PMC10892041, “Vanadium Complexes with Thioanilide Derivatives of Amino Acids: Inhibition of Human Phosphatases and Specificity in Various Cell Models of Metabolic Disturbances” (Pharmaceuticals, 2024).

Assays:
SHP2 = molecular target: T1, SHP2 (Homo sapiens, UniProt Q06124); assay: Inhibition of human recombinant tyrosine phosphatase SHP2 (DiFMUP fluorescence); format: biochemical; conditions: 1 µM; control solvent only; SD did not exceed 6%
T1 construct: purchased Sigma-Aldrich
T1 sequence (Q06124 1-593): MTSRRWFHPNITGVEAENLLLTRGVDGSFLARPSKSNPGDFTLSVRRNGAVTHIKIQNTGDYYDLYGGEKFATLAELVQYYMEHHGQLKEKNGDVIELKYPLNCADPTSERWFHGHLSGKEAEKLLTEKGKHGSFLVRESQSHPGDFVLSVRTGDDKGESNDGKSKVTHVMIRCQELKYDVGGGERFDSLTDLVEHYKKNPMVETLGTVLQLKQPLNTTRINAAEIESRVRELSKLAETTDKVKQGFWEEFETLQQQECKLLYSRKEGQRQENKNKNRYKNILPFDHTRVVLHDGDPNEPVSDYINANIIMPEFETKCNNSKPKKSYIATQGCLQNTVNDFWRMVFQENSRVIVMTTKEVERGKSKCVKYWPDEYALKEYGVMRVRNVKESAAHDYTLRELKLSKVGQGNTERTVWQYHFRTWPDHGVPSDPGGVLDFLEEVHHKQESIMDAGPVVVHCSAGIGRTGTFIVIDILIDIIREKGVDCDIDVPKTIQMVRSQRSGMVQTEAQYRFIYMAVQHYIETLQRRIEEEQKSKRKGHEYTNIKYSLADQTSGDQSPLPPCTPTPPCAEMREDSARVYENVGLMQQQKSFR
Procedure, shortened: (§1)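 Human recombinant phosphatases (SHP1 400 ng/mL, SHP2 50 ng/mL, LAR 5 ng/mL final) were pre-incubated 10 min with compound in 25 mM MOPS pH 7.0, 50 mM NaCl, 1 mM DTT, 0.05% Tween-20. DiFMUP (0.1 mM final) was added for 20 min at 23 °C and fluorescence read at 355/560 nm. Screening used 1 µM compound (% inhibition vs vehicle); IC50 also reported.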

PTP1B = molecular target: T2, PTP1B (Homo sapiens, UniProt P18031); assay: Inhibition of human recombinant tyrosine phosphatase PTP1B (DiFMUP fluorescence); format: biochemical; conditions: 1 µM; control solvent only; SD did not exceed 6%
T2 construct: purchased Sigma-Aldrich
T2 sequence (P18031 1-435): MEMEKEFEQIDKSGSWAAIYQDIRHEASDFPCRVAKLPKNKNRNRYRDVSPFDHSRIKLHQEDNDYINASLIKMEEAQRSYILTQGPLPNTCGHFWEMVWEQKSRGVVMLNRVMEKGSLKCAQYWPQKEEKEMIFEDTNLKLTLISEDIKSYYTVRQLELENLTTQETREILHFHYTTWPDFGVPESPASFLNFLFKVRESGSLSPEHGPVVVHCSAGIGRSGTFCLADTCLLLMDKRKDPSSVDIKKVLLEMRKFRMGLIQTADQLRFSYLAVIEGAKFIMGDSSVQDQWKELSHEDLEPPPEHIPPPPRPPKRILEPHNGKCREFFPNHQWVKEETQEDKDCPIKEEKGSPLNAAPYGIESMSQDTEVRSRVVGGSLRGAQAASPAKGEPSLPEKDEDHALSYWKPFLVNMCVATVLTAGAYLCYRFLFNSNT
Procedure, shortened: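 Human recombinant PTP1B (final 50 ng/mL) in buffer of 25 mM MOPS, 50 mM NaCl, 1 mM DTT and 0.05% Tween-20 (pH 7.0) was dispensed onto test compound in black 384-well plates. After 10 min, DiFMUP was added to 0.1 mM. Plates were incubated 20 min at 23 °C and fluorescence read (ex 355, em 560 nm). Assays were run in triplicate, with inhibition relative to enzyme-plus-vehicle control and IC50 fitted in GraphPad Prism.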

LAR = molecular target: T3, LAR (Homo sapiens, UniProt P10586); assay: Inhibition of human recombinant tyrosine phosphatase LAR (DiFMUP fluorescence); format: biochemical; conditions: 1 µM; control solvent only; SD did not exceed 6%
T3 sequence (P10586 1352-1607 limits assumed): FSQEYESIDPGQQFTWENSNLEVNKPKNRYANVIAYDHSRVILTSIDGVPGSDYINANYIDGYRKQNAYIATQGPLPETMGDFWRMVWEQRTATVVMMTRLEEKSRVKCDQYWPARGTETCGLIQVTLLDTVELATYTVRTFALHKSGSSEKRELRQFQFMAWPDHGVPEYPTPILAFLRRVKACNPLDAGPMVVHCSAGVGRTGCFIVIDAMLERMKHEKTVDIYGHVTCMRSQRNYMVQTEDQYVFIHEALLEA
Procedure, shortened: as §1

SHP1 = molecular target: T4, SHP1 (Homo sapiens, UniProt P29350); assay: Inhibition of human recombinant tyrosine phosphatase SHP1 (DiFMUP fluorescence); format: biochemical; conditions: 1 µM; control solvent only; SD did not exceed 6%
T4 construct: purchased Sigma-Aldrich
T4 sequence (P29350 whole entry): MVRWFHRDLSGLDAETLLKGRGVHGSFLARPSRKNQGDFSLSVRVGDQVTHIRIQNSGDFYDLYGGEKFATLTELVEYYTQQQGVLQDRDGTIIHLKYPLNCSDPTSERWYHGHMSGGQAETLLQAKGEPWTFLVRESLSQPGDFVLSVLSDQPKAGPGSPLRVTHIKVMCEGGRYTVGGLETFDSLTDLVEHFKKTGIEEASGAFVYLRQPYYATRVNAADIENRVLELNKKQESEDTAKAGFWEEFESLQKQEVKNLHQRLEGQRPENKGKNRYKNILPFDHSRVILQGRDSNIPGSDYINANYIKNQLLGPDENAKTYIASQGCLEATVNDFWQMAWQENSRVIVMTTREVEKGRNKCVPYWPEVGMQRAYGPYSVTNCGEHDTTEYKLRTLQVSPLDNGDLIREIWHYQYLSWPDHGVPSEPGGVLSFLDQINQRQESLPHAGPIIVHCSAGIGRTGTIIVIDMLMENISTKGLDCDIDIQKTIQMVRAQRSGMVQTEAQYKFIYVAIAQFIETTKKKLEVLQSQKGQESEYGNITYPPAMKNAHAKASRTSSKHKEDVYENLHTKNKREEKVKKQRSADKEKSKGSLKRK
Procedure, shortened: as §1

adipocytes 3T3-L1 = tested on: adipocytes 3T3-L1; set-up: method as in doi:10.1016/j.poly.2020.114589; conditions: 50 µM; previously published by the authors; cited from earlier work
hepatocytes HepG2 [1] = conditions: 1 mM
Method: Hepatocytes HepG2, myocytes C2C12 (after 8 days differentiation), and adipocytes 3T3-L1 (after 11 days of differentiation) were cultured and maintained as described in the section above but pleated on a ScintiPlate TC 96-well microplate coated with a solid-phase scintillator (PerkinElmer). Hepatocytes and myocytes were washed, and culture medium was changed for medium with 0.5% BSA instead of serum. After 24 h incubation, the tested complexes were added. After 2 h incubation at 37 °C in 5% CO2, the medium was changed to low-glucose medium (1000 mg/L), and the tested complexes were added again, with further incubation for 4 h being conducted. […] Wortmannin at a final concentration of 200 nM (Sigma-Aldrich ) was used as a negative control. After that, cells were washed three times with cold KRB, and cytochalasin B (10 mM final) was added for several wells as a ‘‘no uptake” control, which proceeded as shown below.
For cells proceeded as above, 2-deoxy-D-[U-14C]-glucose (250–350 mCi/mmol, NEC720A, PerkinElmer) solution in KRB with a total activity of 0.03 mCi was added to each well. […] The radioactivity of samples was measured in a scintillation counter, MicroBeta Trilux 1450 (PerkinElmer). Non-specific radioactivity was subtracted from each result (cpm). […] The final results were expressed as percent of the control that contained solvent only instead of the tested compound.

hepatocytes HepG2 [2] = assay: Inhibition of hepatic gluconeogenesis (glucose synthesis); conditions: known inhibitors of gluconeogenesis; concentration not given

Inhibition of SHP2, percentage of inhibition of the control (SHP2) | Inhibition of PTP1B, percentage of inhibition of the control (PTP1B) | Inhibition of LAR, percentage of inhibition of the control (LAR) | Inhibition of SHP1, percentage of inhibition of the control (SHP1) | Potentiation of [14C]-deoxy-D-glucose transport to hyperinsulinemia-induced insulin-resistant hepatocytes (hepatocytes HepG2 [1]) | Inhibition of glucose synthesis by hepatocytes, experimental control compounds (hepatocytes HepG2 [2]) | Structure (SMILES) | Transport of [14C]-deoxy-D-glucose into 3T3-L1 adipocytes, % of control (adipocytes 3T3-L1)
68% | 31% | 25% | 62% | – | – | O=C(NN=Cc1cc(Br)ccc1[O][V]1[O]C(c2ccccc2O)=NN=Cc2cc(Br)ccc2[O]1)c1ccccc1O [VC029, [V(L7)(HL7)]] | statistically significant activity
– | – | – | – | did not potentiate | showed inhibition of glucose synthesis | CN(C)C(=N)N=C(N)N [metformin] | –
